Patent US20220184000A1, “USE OF CANNABIDIOL IN THE TREATMENT OF DRAVET SYNDROME” (priority 2019, published 2022)

Columns and labels:
Type in all cases: in vivo
Scn1a^+/− mice [1] = assay: Survival / premature mortality in Scn1a^+/− mice, Study II (chronic model of Dravet syndrome)
Method: The animals were group housed throughout Study II except for 3 days during sucrose preference test when each animal was individually housed. This experiment was conducted in dark cycle (dim red light, 8:00-20:00 h). Male 129S-Scn1^atm1Kea/Mmjax heterozygote mice (Jackson Laboratory, USA) were bred with female wild type C57BL/6 mice (Charles River, UK) to obtain Scn1a^+/− and wild type (WT) littermate mice used in this study. At the end of the study, animals were humanely killed by cervical dislocation. […]
As seizure-related deaths in this model were unpredictable, animals were video monitored continuously (24 h×7 days) throughout the study and any mortality observed was cross checked with the available video footage to confirm the reason of death.
(§1) In Study II, the data were analysed in GraphPad Prism 6 software. […] Data obtained from rotarod, gait, social interaction (active interaction), EPM, sucrose preference, RAM (RME) tests were normally distributed and the differences between the three groups were analysed by one-way ANOVA. […] Parametric data are presented in scattered dot plot in the figures and are expressed as mean±SEM. Non-parametric data are presented in box plot in the figures and are expressed as median, min to max, and interquartile range (IQR). […]

wild type (WT) mice = assay: Neonatal welfare scoring (TNW) in wild type mice, Study I
Method: 129S-Scn1a^tm1Keammjax heterozygote mice (Jackson Laboratory, USA) were maintained in and bred together to obtain Scn1a^−/− and wild type (WT) animals used for this Study (n=10 per group).
Following genotyping, animals were randomly divided into four groups WT vehicle-treated, WT CBD-treated, Scn1a^−/− vehicle-treated and Scn1a^−/− CBD-treated (n=10/group). They were injected subcutaneously twice daily with either CBD (100 mg/kg) or its vehicle (ethanol:Kolliphor®:0.9% saline=2:1:17) from P8 until P25 or death (whichever was earlier).
A twice daily welfare check was conducted throughout the entire duration of the study. Drug administration was conducted at 0800 h and followed by welfare checks. Conversely, afternoon welfare checks were conducted from 1600 h and followed by drug administration in order to provide the maximum possible time between doses. […]
The parameters used for the welfare assessment were: weight, natural activity (NA; 0-3), reflex/response to touch (RT; 0-3), orbital tightening (OT; 0-2), and body condition score (BC; 1-3). A total neonatal welfare score (TNW; range 0-8) was calculated by adding together scores from NA, RT, and […].
In Study I, the welfare parameters were analysed using SPSS 24 (IBM SPSS Statistics®, UK), whilst survival data were analysed using GraphPad Prism 6 software (GraphPad Software, Inc., USA). […] All the data are expressed as mean±SEM. […]

Scn1a^+/− mice [2] = assay: Sucrose preference test, depression-like behaviour, Study II; conditions: CBD 100 mg/kg s.c. twice daily
Method: (§2) Here, Scn1a^+/− were randomly divided into two groups and subcutaneously injected with either CBD (100 mg/kg twice daily; n=12) or its vehicle (ethanol:Kolliphor®:0.9% saline=2:1:17; n=29) from P8 onwards until P52 or death (whichever was earlier).
The sucrose preference test was carried out to assess the depression-like behaviour (Serova, Mulhall, & Sabban, 2017). The animals were separately housed during this test. Here, 24 hours before the test, animals were trained to drink from two bottles each containing 2% sucrose. On the first day of test, the animals were provided with a pre-weighed bottle of 2% sucrose and another containing a pre-weighed volume of tap water. The positions of the bottles were swapped after 24 hours to avoid any side preferences. After 48 hours, both bottles were weighed, and sucrose preference was calculated by using the following formula: […]
as §1

Scn1a^+/− mice [3] = assay: Elevated plus maze (EPM) test, anxiety-like behaviour, Study II; conditions: CBD 100 mg/kg s.c. twice daily
Method: as §2
The elevated plus maze (EPM) test was performed to assess the level of anxiety in animals (M. Chen et al., 2017). The wooden test apparatus consists of two closed arms (50×10×40 cm) and two open arms (50×10 cm) connected via a central platform (10×10 cm) and raised at a height of 50 cm above the floor. Each animal was placed on the central platform facing towards an open arm. Activity was video recorded (Swann SRDVR-16440H, UK) for 5 minutes. The video files were blinded and coded offline at the end of all experiments using Observer XT 12 (Noldus, Netherlands). Time spent on open arms was inversely related to the level of anxiety.
as §1

Structure (SMILES): C=C(C)[C@@H]1CCC(C)=C[C@H]1c1c(O)cc(CCCCC)cc1O [CBD, cannabidiol]
- survival curve, Scn1a^+/− vehicle-treated versus CBD-treated (Scn1a^+/− mice [1]; CBD 100 mg/kg s.c. twice daily from P8 until P52 or death, n=12 CBD, n=29 vehicle, Mantel-Cox p=0.04, FIG. 2A): Survival was significantly less in Scn1a^+/− vehicle-treated group
- animals that died before the completion of the study (P52) (Scn1a^+/− mice [1]; Scn1a^+/− CBD-treated, 2 of 12, CBD 100 mg/kg s.c. twice daily from P8, vehicle approximately 66% (19 of 29), p<0.0001, FIG. 2B): 17%
- TNW score versus WT vehicle-treated animals (post hoc) (wild type (WT) mice; P8-P8.5, first day of treatment, CBD 100 mg/kg s.c. twice daily, p<0.05, FIG. 1A): improved TNW score
- mean total neonatal welfare (TNW) score (wild type (WT) mice; WT CBD-treated group, CBD 100 mg/kg s.c. twice daily from P8 until P25, n=10, mean±SEM, score range 0-8, vehicle group 0.39±0.04): 0.24±0.04
- sucrose preference, Scn1a^+/− CBD-treated versus WT vehicle-treated (Scn1a^+/− mice [2]; p=0.36): similar
- sucrose preference, Scn1a^+/− vehicle-treated compared to Scn1a^+/− CBD-treated (Scn1a^+/− mice [2]; statement describes vehicle group relative to CBD group (n=10), p=0.01, FIG. 4D): reduced preference for sucrose
- time spent on open arms (EPM), Scn1a^+/− CBD-treated versus WT vehicle-treated (Scn1a^+/− mice [3]; p=0.73): not different
- time spent on open arms (EPM), Scn1a^+/− vehicle-treated compared to Scn1a^+/− CBD-treated (Scn1a^+/− mice [3]; statement describes vehicle group relative to CBD group (n=10), p=0.02, FIG. 4C): significantly less time on the open arms
